Inconclusive results and toxic doses are left out. Rule for the calls: active = survival T/C of 150% or more; inactive = T/C below 125% in these data.
Tested on: CD2F1 mice, L1210 leukemia ip, survival T/C
Experiment: NCI In Vivo Anticancer Drug Screen. Data for tumor model L1210 Leukemia (intraperitoneal) in CD2F1 (CDF1) mice
Conditions: higher = longer survival
Procedure, shortened: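 Ratio T/C, where T is the treated-group value and C the vehicle-dosed control value, from mice implanted with a transplantable tumor.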

[1] = endpoint: mean survival time, dose: 100.0 mg/kg/injection, schedule: Q01DX009 (ip), vehicle: saline with Tween-80
[2] = endpoint: mean survival time, dose: 100.0 mg/kg/injection, schedule: Q01DX001 (ip), vehicle: saline with Tween-80
[3] = endpoint: mean survival time, dose: 200.0 mg/kg/injection, schedule: Q01DX001 (ip), vehicle: saline with Tween-80
[4] = endpoint: mean survival time, dose: 50.0 mg/kg/injection, schedule: Q01DX009 (ip), vehicle: Klucel (hydroxypropylcellulose) (HPC)
[5] = endpoint: mean survival time, dose: 100.0 mg/kg/injection, schedule: Q01DX009 (ip), vehicle: Klucel (hydroxypropylcellulose) (HPC)
[6] = endpoint: mean survival time, dose: 200.0 mg/kg/injection, schedule: Q01DX009 (ip), vehicle: Klucel (hydroxypropylcellulose) (HPC)
[7] = endpoint: mean survival time, dose: 400.0 mg/kg/injection, schedule: Q01DX009 (ip), vehicle: Klucel (hydroxypropylcellulose) (HPC)

Measured: T/C

O=C(CCCN1CCC(O)CC1)c1ccccc1
inactive: endpoint: mean survival time, dose: 50.0 mg/kg/injection, schedule: Q01DX009 (ip), vehicle: saline with Tween-80 88 % of control | [1] 94 % of control

CCOC(=O)C(N)Cc1ccc(O)cc1 (stereo not given)
inactive: endpoint: mean survival time, dose: 100.0 mg/kg/injection, schedule: Q04DX003 (ip), vehicle: other 102 % of control | endpoint: mean survival time, dose: 200.0 mg/kg/injection, schedule: Q04DX003 (ip), vehicle: other 100 % of control | endpoint: mean survival time, dose: 400.0 mg/kg/injection, schedule: Q04DX003 (ip), vehicle: other 97 % of control

CCOC(=O)C(N)C[S][Sn]([CH3])([CH3])[Cl] (stereo not given)
inactive: endpoint: median survival time, dose: 3.12 mg/kg/injection, schedule: Q01DX009 (ip), vehicle: saline 98 % of control | endpoint: median survival time, dose: 6.25 mg/kg/injection, schedule: Q01DX009 (ip), vehicle: saline 97 % of control | endpoint: median survival time, dose: 12.5 mg/kg/injection, schedule: Q01DX009 (ip), vehicle: saline 100 % of control | endpoint: median survival time, dose: 25.0 mg/kg/injection, schedule: Q01DX009 (ip), vehicle: saline 89 % of control

Nc1nc2c(ncn2-c2cccc(NC(=O)Nc3ccc(S(=O)(=O)F)c(Cl)c3)c2)c(=O)[nH]1 (tested in a mixture with another compound)
inactive: [2] 97 % of control | [3] 95 % of control

COc1cc[n+](CCc2c[nH]c3ccccc23)cc1
inactive: endpoint: mean survival time, dose: 12.5 mg/kg/injection, schedule: Q01DX009 (ip), vehicle: saline sonified 97 % of control | endpoint: mean survival time, dose: 12.5 mg/kg/injection, schedule: Q04DX003 (ip), vehicle: saline with Tween-80 97 % of control | endpoint: mean survival time, dose: 25.0 mg/kg/injection, schedule: Q01DX009 (ip), vehicle: saline sonified 98 % of control | endpoint: mean survival time, dose: 25.0 mg/kg/injection, schedule: Q04DX003 (ip), vehicle: saline with Tween-80 101 % of control | endpoint: mean survival time, dose: 50.0 mg/kg/injection, schedule: Q01DX009 (ip), vehicle: saline sonified 100 % of control | endpoint: mean survival time, dose: 50.0 mg/kg/injection, schedule: Q04DX003 (ip), vehicle: saline with Tween-80 104 % of control

NC(N)=NNC(=O)C(=O)O
inactive: endpoint: mean survival time, dose: 100.0 mg/kg/injection, schedule: Q01DX009 (ip), vehicle: saline 98 % of control | endpoint: mean survival time, dose: 200.0 mg/kg/injection, schedule: Q01DX009 (ip), vehicle: saline 110 % of control | endpoint: mean survival time, dose: 400.0 mg/kg/injection, schedule: Q01DX009 (ip), vehicle: saline 100 % of control

COc1ccc(C(=O)c2ccc(OC)cc2)cc1
inactive: [4] 100 % of control | [5] 93 % of control | [6] 86 % of control

Nc1ccc(-c2ccc(N)c(Cl)c2)cc1Cl
inactive: [5] 105 % of control | [6] 103 % of control | [7] 100 % of control

O=C(NC(Cc1ccc(I)cc1)C(=O)O)c1cccc(Br)c1 (stereo not given)
inactive: endpoint: median survival time, dose: 25.0 mg/kg/injection, schedule: Q01DX009 (ip), vehicle: Klucel (hydroxypropylcellulose) (HPC) 105 % of control | endpoint: median survival time, dose: 50.0 mg/kg/injection, schedule: Q01DX009 (ip), vehicle: Klucel (hydroxypropylcellulose) (HPC) 97 % of control | endpoint: median survival time, dose: 100.0 mg/kg/injection, schedule: Q01DX009 (ip), vehicle: Klucel (hydroxypropylcellulose) (HPC) 94 % of control | endpoint: median survival time, dose: 200.0 mg/kg/injection, schedule: Q01DX009 (ip), vehicle: Klucel (hydroxypropylcellulose) (HPC) 94 % of control

CCOC(=O)c1csc(-c2csc(CCNC(=O)c3ccccc3)n2)n1
inactive: [2] 97 % of control | [1] 102 % of control | endpoint: mean survival time, dose: 100.0 mg/kg/injection, schedule: Q04DX003 (ip), vehicle: saline 96 % of control | [3] 98 % of control | endpoint: mean survival time, dose: 200.0 mg/kg/injection, schedule: Q01DX009 (ip), vehicle: saline with Tween-80 100 % of control | endpoint: mean survival time, dose: 200.0 mg/kg/injection, schedule: Q04DX003 (ip), vehicle: saline 101 % of control | endpoint: mean survival time, dose: 400.0 mg/kg/injection, schedule: Q01DX001 (ip), vehicle: saline with Tween-80 101 % of control | endpoint: mean survival time, dose: 400.0 mg/kg/injection, schedule: Q01DX009 (ip), vehicle: saline with Tween-80 96 % of control | endpoint: mean survival time, dose: 400.0 mg/kg/injection, schedule: Q04DX003 (ip), vehicle: saline 95 % of control

COc1ccccc1N=Nc1c(O)n(-c2ccccc2OC)c(=S)n(-c2ccccc2OC)c1=O
inactive: endpoint: mean survival time, dose: 50.0 mg/kg/injection, schedule: Q04DX002 (ip), vehicle: saline with Tween-80 98 % of control | [2] 93 % of control | endpoint: mean survival time, dose: 100.0 mg/kg/injection, schedule: Q04DX002 (ip), vehicle: saline with Tween-80 94 % of control | [3] 94 % of control | endpoint: mean survival time, dose: 200.0 mg/kg/injection, schedule: Q04DX002 (ip), vehicle: saline with Tween-80 102 % of control

CC(=O)Nc1ccc(CN2CC(C)N(N)C(C)C2)cc1 (stereo not given)
inactive: endpoint: mean survival time, dose: 12.5 mg/kg/injection, schedule: Q01DX009 (ip), vehicle: Klucel (hydroxypropylcellulose) (HPC) 103 % of control | endpoint: mean survival time, dose: 25.0 mg/kg/injection, schedule: Q01DX009 (ip), vehicle: Klucel (hydroxypropylcellulose) (HPC) 98 % of control | [4] 98 % of control | [5] 101 % of control | [6] 103 % of control | [7] 89 % of control

— PubChem BioAssay AID256 (DTP/NCI, 2004)
